Columns and labels:
Trichomonas vaginalis [1] = experiment: Antiparasitic activity against Trichomonas vaginalis JT assessed as inhibition of parasite growth incubated for 24 hrs by flow cytometric analysis; format: functional, organism-based
[2] = Cytotoxicity against human HeLa cells assessed as reduction in cell viability incubated for 48 hrs by MTT assay; format: toxicity, cell-based
Trichomonas vaginalis [3] = experiment: Antiparasitic activity against Trichomonas vaginalis JT assessed as inhibition of parasite growth incubated for 48 hrs by flow cytometric analysis; format: functional, organism-based
[4] = Selectivity index, ratio of CC50 for cytotoxicity against human […] cells incubated for 24 hrs to IC50 for antiparasitic activity against Trichomonas vaginalis JT assessed as inhibition of parasite growth incubated for 24 hrs; format: toxicity, cell-based; conditions: read-out: Ratio CC50/IC50
[5] = Selectivity index, ratio of CC50 for cytotoxicity against human […] cells incubated for 48 hrs to IC50 for antiparasitic activity against Trichomonas vaginalis JT assessed as inhibition of parasite growth incubated for 48 hrs; format: toxicity, cell-based; conditions: read-out: Ratio CC50/IC50
[6] = Cytotoxicity against human HeLa cells assessed as reduction in cell viability incubated for 24 hrs by MTT assay; format: toxicity, cell-based
Trichomonas vaginalis [7] = experiment: Potency index, ratio of metronidazole IC50 to test compound IC50 for antiparasitic activity against Trichomonas vaginalis JT assessed as inhibition of parasite growth incubated for 48 hrs by flow cytometric analysis; format: functional
Trichomonas vaginalis [8] = experiment: Selectivity index, ratio of IC50 for antiparasitic activity against Trichomonas vaginalis JT assessed as inhibition of parasite growth incubated for 24 hrs to IC50 for antiparasitic activity against Trichomonas vaginalis JT assessed as inhibition of parasite growth incubated for 48 hrs; format: functional
Trichomonas vaginalis [9] = experiment: Selectivity index, ratio of IC50 for antiparasitic activity against Trichomonas vaginalis JT assessed as inhibition of parasite growth incubated for 48 hrs to IC50 for antiparasitic activity against Trichomonas vaginalis JT assessed as inhibition of parasite growth incubated for 24 hrs; format: functional

| SMILES | IC50 (Trichomonas vaginalis [1]) | CC50 at 48 h [2] | IC50 (Trichomonas vaginalis [3]) | selectivity ratio at 24 h [4] | selectivity ratio at 48 h [5] | CC50 at 24 h [6] | Ratio IC50 (Trichomonas vaginalis [7]) | Ratio IC50 (Trichomonas vaginalis [8]) | Ratio IC50 (Trichomonas vaginalis [9]) |
| --- | --- | --- | --- | --- | --- | --- | --- | --- | --- |
| O=C(OCCn1cnc([N+](=O)[O-])c1)c1cnn(-c2ccccc2)c1 | 7.5 µM | 98 µM | 12.6 µM | 31.4 | 7.7 | 236 µM | – | – | – |
| COc1ccc(-n2cc(C(=O)OCCn3cnc([N+](=O)[O-])c3)cn2)cc1 | 18.8 µM | 141 µM | 24.4 µM | 11.1 | 5.78 | 211 µM | – | – | – |
| O=C(OCCn1cnc([N+](=O)[O-])c1)c1cnn(-c2cc(Cl)cc(Cl)c2)c1 | 13.8 µM | 164 µM | 4.4 µM | 19.2 | 37 | 266 µM | <=19.2 | – | – |
| O=C(OCCn1cnc([N+](=O)[O-])c1)c1cnn(-c2cccc(Br)c2)c1 | 5.2 µM | 111 µM | 2.1 µM | 28.1 | 53.8 | 148 µM | <=19.2 | ~2.5 | – |
| Cc1ncc([N+](=O)[O-])n1CCO [METRONIDAZOLE] | 4.9 µM | 286 µM | 39.7 µM | 136 | 7.19 | 666 µM | – | – | – |
| O=C(OCCn1cnc([N+](=O)[O-])c1)c1cnn(-c2cccc(F)c2)c1 | 18.2 µM | 100 µM | 18 µM | 10.1 | 5.58 | 185 µM | – | – | – |
| O=[N+]([O-])c1cn(CCO)cn1 | 19.9 µM | 212 µM | 40.6 µM | 6 | 5.22 | 120 µM | – | – | – |
| O=C(OCCn1cnc([N+](=O)[O-])c1)c1cnn(-c2ccc(Cl)cc2)c1 | 4.8 µM | 177 µM | 10.3 µM | 40.3 | 17 | 195 µM | – | – | ~2 |
| O=C(OCCn1cnc([N+](=O)[O-])c1)c1cnn(-c2ccc(Cl)c(Cl)c2)c1 | 5.3 µM | 313 µM | 35.5 µM | 110 | 8.81 | 584 µM | – | – | – |
| O=C(OCCn1cnc([N+](=O)[O-])c1)c1cnn(-c2cccc(Cl)c2)c1 | 10.3 µM | 84.9 µM | 8 µM | 21 | 10.5 | 218 µM | – | – | – |
| O=C(OCCn1cnc([N+](=O)[O-])c1)c1cnn(-c2ccc(Br)cc2)c1 | 15 µM | 90.4 µM | 18.6 µM | 4.6 | 4.86 | 69.3 µM | – | – | – |
| O=C(OCCn1cnc([N+](=O)[O-])c1)c1cnn(-c2ccc(F)cc2)c1 | 10.1 µM | 182 µM | 3.8 µM | 21 | 48.2 | 214 µM | <=19.2 | ~2.5 | – |

— ChEMBL document CHEMBL5523699, “Exploring novel pyrazole-nitroimidazole hybrids: Synthesis and antiprotozoal activity against the human pathogen trichomonas vaginalis” (Bioorg Med Chem, 2024)
